# In patent US20120220567A1, “BENZO-FUSED OXAZEPINE COMPOUNDS AS STEAROYL-COENZYME A DELTA-9 DESATURASE INHIBITORS” (priority 2009, published 2012):
# Target: T1, SCD-1 (Homo sapiens, UniProt O00767)
# T1 construct: 50 μg of protein from a HepG2 cell P2 pellet; endogenous in cells; host or cells: HepG2 cells (P2 pellet)
# T1 sequence (O00767 1-359): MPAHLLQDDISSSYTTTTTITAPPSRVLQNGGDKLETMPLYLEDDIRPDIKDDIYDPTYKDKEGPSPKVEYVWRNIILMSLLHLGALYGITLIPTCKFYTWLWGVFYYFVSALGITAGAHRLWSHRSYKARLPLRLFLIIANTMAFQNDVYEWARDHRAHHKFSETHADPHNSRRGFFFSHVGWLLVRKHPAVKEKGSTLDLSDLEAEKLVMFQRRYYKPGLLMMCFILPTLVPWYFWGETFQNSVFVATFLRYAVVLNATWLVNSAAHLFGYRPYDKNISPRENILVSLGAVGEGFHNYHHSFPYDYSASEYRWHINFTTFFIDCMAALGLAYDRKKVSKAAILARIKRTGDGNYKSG
# Test: Stearoyl-CoA desaturase assay (HepG2 cell P2 pellet)
# Type: biochemical
# Conditions: Table 1, compounds of formula (Ia); protein from HepG2 cell P2 pellet, 20 μM stearoyl-CoA, 15 min at 25° C.; read-out: Ave IC50
# Experimental: Stearoyl-CoA desaturase assays were performed in according to Talamo and Bloch. […] Assays were run in triplicate in 100-μl volumes of 100 mM TrisHCl, pH 7.3, containing 20 μM stearoyl-CoA, 2 mM β-NADH, and 50 μg of protein from a HepG2 cell P2 pellet. Since SCD-1 is the only isoform of SCD expressed in these cells, the assay is specific for SCD-1 with these cells as the source of enzyme. Reaction mixtures were incubated fifteen minutes at 25° C. and reactions were then stopped with a volume of trichloroacetic acid giving a final concentration of 0.2%. After five minutes, a 90-μl volume was transferred to a Millipore Multiscreen HTS 96-well filtration plate (MSHVN4B50) containing 125 μl of 10% charcoal in each well, to which vacuum had been previously applied. Plates were shaken fifteen minutes and then filtered into a collection plate. Fifty-μI volumes of filtrate were transferred to another plate containing 150 μl of MicroScint 40 for counting on a TopCount scintillation counter.
row,SMILES,IC50
1,CCc1ccc(CN2CCC3(CCN(C(=O)CNC(=O)CC4CC4)CC3)Oc3ccccc32)cc1 [Compound 7],50 to 499 nM
2,COc1ccc(CN2CCC3(CCN(C(=O)CNC(C)=O)CC3)Oc3ccccc32)cc1 [Compound 16],500 to 10000 nM
3,CCc1ccc(CN2CCC3(CCN(C(=O)[C@H](C)NC(C)=O)CC3)Oc3ccccc32)cc1 [Compound 3],> 10000 nM
4,CC(C)(C)c1ccc(CN2CCC3(CCN(C(=O)CNC(=O)c4cccs4)CC3)Oc3ccccc32)cc1 [Compound 44],50 to 499 nM
5,CC(=O)NCC(=O)N1CCC2(CC1)CCN(Cc1cccc(Cl)c1)c1ccccc1O2 [Compound 26],500 to 10000 nM
6,COc1ccccc1CN1CCC2(CCN(C(=O)CNC(C)=O)CC2)Oc2ccccc21 [Compound 24],500 to 10000 nM
7,CCc1ccc(CN2CCC3(CCN(C(=O)CNC(=O)Cc4ccccn4)CC3)Oc3ccccc32)cc1 [Compound 10],> 10000 nM
8,COc1ccc(CN2CCC3(CCN(C(=O)CNC(C)=O)CC3)Oc3ccccc32)cc1F [Compound 31],500 to 10000 nM
9,CCc1ccc(CN2CCC3(CCN(C(=O)CNC(=O)C(C)C)CC3)Oc3ccccc32)cc1 [Compound 6],500 to 10000 nM

# Same assay, conditions: Table 2, compounds of formula (Ib); protein from HepG2 cell P2 pellet, 20 μM stearoyl-CoA, 15 min at 25° C.; read-out: Ave IC50
row,SMILES,IC50
1,CC(C)(C)c1ccc(CN2CCC3(CCN(c4ncc(C(=O)NC5CC5)s4)CC3)Oc3ccccc32)cc1 [Compound 65],50 to 499 nM
2,O=C(NCc1ccccc1)c1cnc(N2CCC3(CC2)CCN(Cc2cccc(C(F)(F)F)c2)c2ccccc2O3)s1 [Compound 57],500 to 10000 nM
3,CC(C)(C)c1ccc(CN2CCC3(CCN(c4ncc(C(=O)NCC[C@H]5CC[C@H](O)C5)s4)CC3)Oc3c(F)cccc32)cc1 [Compound 80],500 to 10000 nM
4,Cn1cnc(-c2cnc(N3CCC4(CC3)CCN(Cc3ccc(C(C)(C)C)cc3)c3ccccc3O4)s2)n1 [Compound 73],0.5 to 49 nM
5,CC(C)CNC(=O)c1cnc(N2CCC3(CC2)CCN(Cc2ccc(C(C)(C)C)cc2)c2cccc(F)c2O3)s1 [Compound 84],500 to 10000 nM
6,O=C(NCCC1CC1)c1cnc(N2CCC3(CC2)CCN(Cc2cccc(C(F)(F)F)c2)c2ccccc2O3)s1 [Compound 51],500 to 10000 nM
7,CC(C)(C)c1ccc(CN2CCC3(CCN(c4ncc(C(=O)NC[C@@H](O)CO)s4)CC3)Oc3c(F)cccc32)cc1 [Compound 95],50 to 499 nM
8,Cc1ccc(CCNC(=O)c2cnc(N3CCC4(CC3)CCN(Cc3ccc(C(C)(C)C)cc3)c3cccc(F)c3O4)s2)s1 [Compound 78],500 to 10000 nM
9,CC(C)(C)c1ccc(CN2CCC3(CCN(c4ncc(C(=O)NCCc5ccsc5)s4)CC3)Oc3c(F)cccc32)cc1 [Compound 92],500 to 10000 nM
10,Cc1nn(C)c(C)c1CNC(=O)c1cnc(N2CCC3(CC2)CCN(Cc2ccc(C(C)(C)C)cc2)c2cccc(F)c2O3)s1 [Compound 90],500 to 10000 nM
11,Cc1cc(CNC(=O)c2cnc(N3CCC4(CC3)CCN(Cc3ccc(C(C)(C)C)cc3)c3cccc(F)c3O4)s2)no1 [Compound 97],500 to 10000 nM
12,CC(C)(C)c1ccc(CN2CCC3(CCN(c4ncc(C(=O)NC[C@H](O)c5ccccc5)s4)CC3)Oc3c(F)cccc32)cc1 [Compound 99],500 to 10000 nM
13,CC(C)(C)c1ccc(CN2CCC3(CCN(c4ncc(C(=O)NCC5OCCO5)s4)CC3)Oc3c(F)cccc32)cc1 [Compound 88],0.5 to 49 nM
14,CC(C)(C)c1ccc(CN2CCC3(CCN(c4ncc(C(=O)NCCN5CCCC5=O)s4)CC3)Oc3c(F)cccc32)cc1 [Compound 81],500 to 10000 nM

# The remaining lines, values ahead:
row,IC50,SMILES
1,50 to 499 nM,COCCCNC(=O)c1cnc(N2CCC3(CC2)CCN(Cc2ccc(C(C)(C)C)cc2)c2cccc(F)c2O3)s1 [Compound 108]
2,500 to 10000 nM,CC(C)(C)c1ccc(CN2CCC3(CCN(c4ncc(C(=O)NCCN5CCNC5=O)s4)CC3)Oc3c(F)cccc32)cc1 [Compound 113]
3,500 to 10000 nM,CC(C)(C)c1ccc(CN2CCC3(CCN(c4ncc(-c5ccc(C#N)cc5)s4)CC3)Oc3ccccc32)cc1 [Compound 137]
4,0.5 to 49 nM,CC(C)(C)c1ccc(CN2CCC3(CCN(c4ncc(C(=O)NCCC(=O)O)s4)CC3)Oc3c(F)cccc32)cc1 [Compound 123]
5,0.5 to 49 nM,CC(C)(C)c1ccc(CN2CCC3(CCN(c4ncc(C(=O)NCCC(=O)O)s4)CC3)Oc3ccccc32)cc1 [Compound 130]
6,500 to 10000 nM,CN(C)CCCNC(=O)c1cnc(N2CCC3(CC2)CCN(Cc2ccc(C(C)(C)C)cc2)c2cccc(F)c2O3)s1 [Compound 107]
7,> 10000 nM,CN(C)CCNC(=O)c1cnc(N2CCC3(CC2)CCN(Cc2ccc(C(C)(C)C)cc2)c2cccc(F)c2O3)s1 [Compound 105]
8,500 to 10000 nM,CC(C)CCNC(=O)c1cnc(N2CCC3(CC2)CCN(Cc2ccc(C(C)(C)C)cc2)c2cccc(F)c2O3)s1 [Compound 109]
9,0.5 to 49 nM,O=C(NC[C@H](O)CO)c1cnc(N2CCC3(CC2)CCN(Cc2cccc(C(F)(F)F)c2)c2cccc(F)c2O3)s1 [Compound 132]
10,500 to 10000 nM,CC(C)(C)c1ccc(CN2CCC3(CCN(c4ncc(-c5ccccc5)s4)CC3)Oc3ccccc32)cc1 [Compound 138]
11,0.5 to 49 nM,O=C(O)CNC(=O)c1cnc(N2CCC3(CC2)CCN(Cc2cccc(C(F)(F)F)c2)c2ccccc2O3)s1 [Compound 136]
12,50 to 499 nM,CC(C)(C)c1ccc(CN2CCC3(CCN(c4ncc(C(=O)NCC(O)c5ccccn5)s4)CC3)Oc3c(F)cccc32)cc1 (stereo not shown) [Compound 118]
13,0.5 to 49 nM,CC(C)(C)c1ccc(CN2CCC3(CCN(c4ncc(C(=O)NCCCO)s4)CC3)Oc3ccccc32)cc1 [Compound 134]
14,0.5 to 49 nM,CC(C)(C)OC(=O)CNC(=O)c1cnc(N2CCC3(CC2)CCN(Cc2ccc(C(C)(C)C)cc2)c2cccc(F)c2O3)s1 [Compound 115]

# Same assay, conditions: Table 3, compounds of formula (Ic); protein from HepG2 cell P2 pellet, 20 μM stearoyl-CoA, 15 min at 25° C.; read-out: Ave IC50
row,SMILES,IC50
1,CC(C)(C)c1ccc(CN2CCC3(CCN(c4ccc(C(=O)NCCC5CC5)nn4)CC3)Oc3c(F)cccc32)cc1 [Compound 150],50 to 499 nM
2,O=C(NCCc1c[nH]cn1)c1ccc(N2CCC3(CC2)CCN(Cc2cccc(C(F)(F)F)c2)c2ccccc2O3)nn1 [Compound 162],0.5 to 49 nM
3,COC(=O)CCNC(=O)c1ccc(N2CCC3(CC2)CCN(Cc2cccc(C(F)(F)F)c2)c2cccc(F)c2O3)nn1 [Compound 173],0.5 to 49 nM
4,CC(C)(C)c1ccc(CN2CCC3(CCN(c4ccc(C(=O)NCCc5ccncc5)nn4)CC3)Oc3c(F)cccc32)cc1 [Compound 144],0.5 to 49 nM
5,COC(=O)CCNC(=O)c1ccc(N2CCC3(CC2)CCN(Cc2cccc(C(F)(F)F)c2)c2ccccc2O3)nn1 [Compound 166],0.5 to 49 nM
6,CC(C)(C)c1ccc(CN2CCC3(CCN(c4ccc(C(=O)NCCc5c[nH]cn5)cn4)CC3)Oc3c(F)cccc32)cc1 [Compound 148],500 to 10000 nM
7,CC(C)c1ccc(CN2CCC3(CCN(c4ccc(C(N)=O)nn4)CC3)Oc3ccccc32)cc1 [Compound 182],0.5 to 49 nM
8,CCc1ccc(CN2CCC3(CCN(c4ccc(C(=O)NCCC5CC5)cn4)CC3)Oc3ccccc32)cc1 [Compound 177],50 to 499 nM
9,O=C(NCCC1CC1)c1ccc(N2CCC3(CC2)CCN(Cc2cccc(C(F)(F)F)c2)c2ccccc2O3)nc1 [Compound 169],0.5 to 49 nM
10,CN(C)CCNC(=O)c1ccc(N2CCC3(CC2)CCN(Cc2cccc(C(F)(F)F)c2)c2ccccc2O3)nn1 [Compound 154],500 to 10000 nM
11,CC(C)Oc1ccc(CN2CCC3(CCN(c4ccc(C(N)=O)nn4)CC3)Oc3ccccc32)cc1 [Compound 179],0.5 to 49 nM
12,O=C(NCCc1ccncc1)c1ccc(N2CCC3(CC2)CCN(Cc2cccc(C(F)(F)F)c2)c2cccc(F)c2O3)nn1 [Compound 174],0.5 to 49 nM
